The test system of experiment [1] is Hyaluronic Acid Synthase 2 (HAS2). In words: RNA-Seq gene expression of HAS2 in keratinocytes. It counts as cell-based, Human. The following applies: 100 μg/ml, 24 hr. On the procedure:
(§1) Cell Lines. Human adult dermal fibroblast and keratinocyte cell lines were treated with 11 different compound treatments (plus DMSO control as treatment #12). Primary cells were plated in cell specific media at 5K or 10K cells per cm^2. Cells were plated in 48 well plates in triplicate, one cell line per plate. Media volume was 500ul per well. Outer two columns of wells were not used. Cells were cultured for 2 days in 37° C. 5% CO2 incubator. After 48 hours all the cell cultures were uniform and appeared healthy, no appreciable number of floating dead cells or evidence of vacuolization of cells that might indicate apoptotic or dying cells.
(§2) Compounds. Stocks of compounds 1 through 8 on the list below were prepared in PBS at 100× the concentration indicated in red type. […] This stock was 100× of final concentration. A 20 mg/ml stock of compound 10 (CBD) was prepared in DMSO. […]
(§3) RNA lysate preparation. […] All samples were shipped frozen on dry ice for RNA extraction, library construction and sequencing to 25 M paired end 100 bp reads per sample.
(§4) RNA-Seq. All the RNA samples were shipped frozen on dry ice for RNA extraction, library construction and sequencing to 25 M paired end 100 bp reads per sample. Differentially expressed genes were identified and pathway enrichment was assessed using the Reactome Pathway.

In the next experiment the test system is Hyaluronidase 2 (HYAL2). Put plainly: RNA-Seq gene expression of HYAL2 in keratinocytes. It counts as cell-based, Human. The following applies: 100 μg/ml, 24 hr. As to the method:
as §1, §2, §3, §4

Experiment [2] relates to Early Growth Response 3 (EGR3). In words: RNA-Seq gene expression of EGR3 in keratinocytes. In kind it is cell-based, Human. Conditions: 100 μg/ml, 24 hr. As to the method:
as §1, §2, §3, §4

Experiment [3] deals with Hyaluronic Acid Synthase 2 (HAS2). In words: RNA-Seq gene expression of HAS2 in dermal fibroblasts. It counts as cell-based, Human. The following applies: 100 μg/ml, 24 hr. On the procedure:
as §1, §2, §3, §4

The subject of the next experiment is Human dermal fibroblasts. Put plainly: Octapeptide dose-response of high MW HA production (band density). The following applies: 72 hours. It counts as cell-based. As to the method:
Human dermal fibroblasts were treated with Octapeptide (1× and 10×; corresponding to 10 μg/ml and 100 μg/ml respectively) or left untreated. After 72 hours, the supernatant was collected, concentrated, run on an SDS-PAGE, stained and imaged. The experiment was conducted 4 times and the density of the bands from each supernatant were quantified (arbitrary units (AU)) using ImageJ. The data was graphed in FIG. 6 and represents the mean±standard deviation of the band densities for each treatment condition.

The record followed here is patent US20250032532A1, “COMBINATION OF OCTAPEPTIDE AND HIGH MOLECULAR WEIGHT HYALURONIC ACID FOR TOPICAL APPLICATION” (Alastin Skincare, Inc., priority 2022, published 2025).

For Hexapeptide-11, the “fold-change in HAS2 gene expression relative to non-treated cells” value in experiment [1] is “excellent upregulation”. For the same substance, in the experiment with Hyaluronidase 2 (HYAL2), the “fold-change in HYAL2 gene expression relative to non-treated cells” value was “potent downregulation”. Also, the “upregulation of EGR3 gene expression relative to non-treated cells” value in experiment [2] is “about seven”.

Consider “Octapeptide: proprietary peptide designed by Alastin; in some embodiments octapeptide-45, amino acid sequence GPHGVREA (Gly-Pro-His-Gly-Val-Arg-Glu-Ala)”, for which, in experiment [3], the “fold-change in HAS2 gene expression relative to non-treated cells” value is listed as “excellent stimulation”. Also, the “fold-change in HYAL2 gene expression relative to non-treated cells” value in the experiment with Hyaluronidase 2 (HYAL2) was “modest downregulation”. The “production of high MW HA in dermal fibroblasts” value in the experiment with Human dermal fibroblasts (1× and 10× (10 μg/ml and 100 μg/ml)) was “dose-responsive increase”. For the same substance, the “density of high MW HA band (ImageJ)” value in the experiment with Human dermal fibroblasts (10× Octapeptide (100 μg/ml), 4 experiments) is given as “vast increase in signal density”.
